Experimental data as given in patent US20230101743A1, “SUBSTITUTED TRIAZINE COMPOUNDS AND USES THEREOF” (MUSC FOUNDATION FOR RESEARCH DEVELOPMENT, priority 2020, published 2023).

Assays:
[1] = Solubilities in water and 1 x PBS buffer (UV-vis); format: physicochemical; conditions: for Solubility in 1.0 ml PBS buffer: 1 × PBS buffer; for Solubility in 1.0 ml PBS buffer / Solubility in 1.0 ml water: 25° C.; for solubility comparison: both water or 1 x PBS buffer
Protocol: The molar extinction co-efficients of exemplary cholesterol lowering compounds were measured in 1 x PBS buffer. The compounds were first dissolved in dimethyl sulfoxide. Solutions with a 0.5 mg/ml concentration were then prepared in DMSO. These solutions were diluted further with 1 x PBS by 100-fold, resulting in solutions with a 5 ug/ml concentration. The resulted diluted solutions were then measured and scanned using a UV-vis spectrophotometer for ultra-violet absorbances between 240 nm to 400 nm, using a UV 96-well microplate. The maximum UV absorbances and corresponding wavelengths were recorded (Table 1). The absorbance values were subtracted by that of a blank, 1 x PBS buffer containing […]. The volume of the solutions for UV measurements was 300 ul and the depth of the solutions was 0.7 cm. The molar extinction co-efficients were then calculated based on formula
The solubilities of the exemplary cholesterol lowering compounds were measured in water and 1 x PBS buffer. The compounds were first stirred with water and 1 x PBS buffer individually at room temperature for 1 h. The suspensions were then centrifuged for 2 min. The top clear solutions were filtered through filter paper, resulting in mother liquids, which were centrifuged again and diluted with 1 x PBS buffer for 10-fold for the solubilities in water and 100-fold the solubilities in 1 x PBS buffer. The resulted solutions were measured using a UV-vis spectrophotometer for UV absorbances with the maximum absorbances. The values were subtracted by that of a blank, 1 x PBS buffer. The corrected absorbances were then used to calculate the corresponding concentrations using the formula (1) and extinction coefficients (Table 1) shown above. The individual concentrations were then used to calculate the solubilities in 1.0 mL of water and 1 x PBS buffer.
The compounds were dissolved in DMSO to either 50 mg/ml, 10 mg/ml or 5 mg/ml solutions, which were diluted to 0.5 mg/ml with DMSO. These solutions were then diluted to 5 ug/ml with 1 x PBS buffer. The resulted solutions were then measured in a UV-vis spectrophotometer for UV scanning from 240 nm to 400 nm at 25° C. The absorbance values were subtracted by that of a blank, 1 x PBS buffer containing DMSO. The total volume of the solutions was 300 uL and the path length for each well was 0.7 cm in a UV 96-well plate. The extinction coefficients of the compounds were then calculated based on molar concentrations and the corrected UV absorbances at the maximum absorption (Table 1).
The mixtures wer stirred for 1 h at room temperature, transferred to 1.5 mL Eppendorf tubes, and centrifuged for 2 min. The clear solutions were filtered through filter papers, affording clear solutions, which were centrifuged again for 2 min. The top clear solutions were diluted by 1 x PBS buffer by 10-fold for the solubilities in water and 100-fold for the solubilities in 1 x PBS buffer. The new clear solutions were then measured individually using a UV-vis spectrophotometer and a UV 96-well microplate. The absorbance values were subtracted by that of a blank, 1 x PBS buffer. Concentrations and solubilities of the compounds were then calculated using their extinct coefficients and the corrected UV absorbances at the maximum absorptions (Table 1).

Hepatic neutral lipid = assay: Neutral lipid staining (BODIPY 493/503) in iPSC-derived hepatocytes; format: cell-based, human; conditions: 72 hours; DL-1 2 μg/mL, CP-346086 20 nM
Protocol: H. Human iPSC derived hepatocytes were treated with DL-1 (2 μg/mL) and MTTP inhibitor CP-346086 (20 nM) for 72 hours. […] (A) Hepatic neutral lipid was determined by staining with 2 μM of BODIPYTM 493/503 for 15 mins and fixed with 4% PFA for microscopy. Nuclei were stained blue by DAPI. Scale bar=100 μm. […] Data are shown as mean±SEM of ten replicates (n=10); ***p<0.001.
K3 iPSC-derived hepatocytes (Day 20) were treated with or without 2 μg/mL of DL-1 or 20 nM of CP-346086 (Sigma) for 72 hours with daily medium change. At the time-point of interest, cells were treated with 2 μM of BODIPY® 493/503 staining solution (ThermoFisher) and 5 μg/mL of Hoechst 33342 (ThermoFisher) in PBS at 37 degrees for 15 minutes. Cells were washed with sterile PBS three times and then fixed with 4% PFA. Fluorescence images were taken using Bio-rad Zoeυ Fluorescent Cell Imager (Bio-Rad) and KEYENCE BZ-X800E Fluorescence Microscope (KEYENCE). Integrated fluorescent intensity was normalized by total cell counts, which is determined by DAPI staining.

[2] = system: intracellular APOB, LAMP1, and SORTILIN; assay: Confocal immunofluorescence of intracellular APOB, LAMP1 and SORTILIN; format: cell-based, human; conditions: 48 μg/mL, 24 hours
Protocol: Human iPSC-derived hepatocytes (iPSC-Heps) were treated with 48 μg/mL of DL-9 for 24 hours. Immunofluorescence of intracellular APOB, LAMP1, and SORTILIN was detected by specific antibodies. […] Extracellular APOB was measured by ELISA analysis. APOB level was normalized to DMSO treated group (FIG. 13C). In FIG. 13D intracellular APOB was determined via western blot using a specific anti-APOB antibody. […] Data are shown as mean±SD of triplicates (n=3). Statistical analysis was performed using the student t-test.
For hepatic marker expression analysis, human iPSC-derived hepatocytes (Day 20) were treated with 2 μg/mL of DL-1 for 24 hours. Cells were fixed in 4% paraformaldehyde (PFA) and penetrated with 0.1% Triton-X-100. Cells were incubated with primary antibodies (ALB, 1:1000, Dako; HNF4-a, 1:1000, Santa Cruz) overnight at 4 degrees and then switched to secondary antibodies (Alexa Flour 488 goat anti-rabbit, 1:1000, Invitrogen; Alexa Flour 594 rabbit anti-mouse, 1:2000, Invitrogen). Images were taken using Bio-Rad Zoe™ Fluorescent Cell Imager (Bio-Rad). For intracellular APOB localization, iPSC-heps were treated with 0, 3, 12, 48 μg/mL of DL-9 for 24 hours, and cells were fixed in 4% PFA followed by 0.1% Triton-X-100 penetration. […] Integrated fluorescent intensity was normalized by total cell counts, which is determined by DAPI staining.

| Solubility in 1.0 ml PBS buffer [1] [µg] | Solubility in 1.0 ml water ([1]; water) [µg] | solubility comparison [1] | solubility relative to that of DL-9 in 1 x PBS buffer ([1]; 1 x PBS buffer) [fold] | solubility relative to that of DL-9 in water ([1]; water) | SMILES | hepatic lipid accumulation (neutral lipid level) (Hepatic neutral lipid) | colocalization of APOB and SORTILIN [2] |
| --- | --- | --- | --- | --- | --- | --- | --- |
| 61 | 0.27 | – | – | – | Sc1nc(S)nc(Nc2cc(Cl)cc(Cl)c2)n1 (racemic) [DL-5, 6-[(3,5-dichlorophenyl)amino]-1,3,5-triazine-2,4-dithiol] | – | – |
| 257 | 1.78 | better solubilities than that for DL-9 | – | – | CC(C)(C)c1cc(Nc2nc(S)nc(S)n2)cc(C(C)(C)C)c1OCCO (racemic) [DL-27, 6-(3,5-di-tert-butyl-4-(2-hydroxyethoxy)-phenylamino)-1,3,5-triazine-2,4-dithiol] | – | – |
| 348 | 1.25 | better solubilities than that for DL-9 | – | – | Oc1c(Cl)cc(Nc2nc(S)nc(S)n2)cc1Cl (racemic) [DL-28, 6-(3,5-dichloro-4-hydroxyphenylamino)-1,3,5-triazine-2,4-dithiol] | – | – |
| 686 | 2.22 | better solubilities than that for DL-9 | – | – | Cc1cc(Nc2nc(S)nc(S)n2)cc(C)c1O (racemic) [DL-29, 6-(3,5-dimethyl-4-hydroxyphenylamino)-1,3,5-triazine-2,4-dithiol] | – | – |
| 459 | 1.35 | better solubilities than that for DL-9 | – | – | CC(C)(C)c1cc(C(C)(C)C)c(Nc2nc(S)nc(S)n2)cc1O (racemic) [DL-30, 6-(2,4-di-tert-butyl-5-hydroxyphenylamino)-1,3,5-triazine-2,4-dithiol] | – | – |
| 477 | 1.63 | better solubilities than that for DL-9 | ~5 | about 4 fold | CC(C)(C)c1cc(Nc2nc(S)nc(S)n2)c(O)c(C(C)(C)C)c1 (racemic) [DL-31, 6-(3,5-di-tert-butyl-2-hydroxyphenylamino)-1,3,5-triazine-2,4-dithiol] | – | – |
| 786 | 2.01 | better solubilities than that for DL-9 | – | – | COc1cc(Nc2nc(S)nc(S)n2)cc(OC)c1O (racemic) [DL-32] | – | – |
| – | – | – | – | – | O=C(Nc1ccc2c(c1)CCN(Cc1ncn[nH]1)C2)c1ccccc1-c1ccc(C(F)(F)F)cc1 [CP-346086, reference compound] | significant increase of neutral lipid level | – |

| SMILES | Solubility in 1.0 ml PBS buffer [1] [µg] | Solubility in 1.0 ml water ([1]; water) [µg] | solubility comparison [1] | solubility relative to that of DL-9 in 1 x PBS buffer ([1]; 1 x PBS buffer) [fold] | solubility relative to that of DL-9 in water ([1]; water) | hepatic lipid accumulation (neutral lipid level) (Hepatic neutral lipid) | colocalization of APOB and SORTILIN [2] |
| --- | --- | --- | --- | --- | --- | --- | --- |
| CC(C)(C)c1cc(Nc2nc(S)nc(S)n2)cc(C(C)(C)C)c1O [DL-9, {4-[(3,5-di-tert-butyl-4-hydroxyphenyl)amino]-6-sulfanidyl-1,3,5-triazin-2-yl}sulfanide] | 91 | 0.40 | best solubility among the first three compounds | – | – | – | colocalization of APOB and SORTILIN |
| C#CCOCCOCCOCCOCCOc1c(C(C)(C)C)cc(Nc2nc(S)nc(S)n2)cc1C(C)(C)C [DL-33, 6-(3,5-di-tert-butyl-4-(2-(2-(2-(2-(2-propyn-1-yloxy)ethoxy)ethyoxy)etoxy)ethoxy)-phenylamino)-1,3,5-triazine-2,4-dithiol] | 186 | 1.18 | better solubilities than that for DL-9 | – | – | – | – |
